Measurements as given in US20250130239A1, “PROTEIN DEGRADER” (University of Dundee, priority 2021, published 2025).

Assays:
[1] = system: BRD3, BRD4 or any other endogenous protein; assay: TMT labeling mass spectrometry proteomics, off-targets; assay type: cell-based, human; settings: 1 μM, 2 h; >6,621 proteins quantified
Method: Sample processing, TMT labelling and fractionation. CRISPR modified BromoTag-Brd2 HEK293 cells were seeded 5×10^6 cells on a […] 24 h before treatment. Cells were treated with either DMSO, 1 μM AGB1 or 1 μM cis-AGB1. 2 h post-treatment, the cells were washed twice with PBS. Cells were lysed in 150 μL of 100 mM TEAB, 5% (w/v) SDS. The lysate was sonicated for 10 s and then centrifuged at 15,000 g for 5 min with the supernatant collected post-centrifugation. Samples were then quantified using a micro-BCA protein assay kit (Thermo Fisher Scientific); 300 μg of each sample were then reduced, alkylated and then digested using Strap mini protocol (Protifi) protocol as described by the manufacturer (protifi) with some modification. Samples were double digested with trypsin (1:40) first overnight then for another 6 hrs with the same ratio (1:40) in 50 mM TEAB buffer. Peptides were quantified using a quantitative fluorometric peptide assay (Thermo Fisher Scientific). The samples (90 μg each) were labelled with a TMT 10-plex Isobaric Label Reagent set (Thermo Fisher Scientific) as per the manufacturer's instructions. After labelling, samples were checked for labelling efficiency, then mixed, desalted, and dried in a speed-vac at 30° C. Samples were re-dissolved in 200 μl ammonium formate (10 mM, pH 9.5) and peptides were fractionated using High pH RP Chromatography. […]

[2] = biological target: T1, BromoTag-Brd2 (Homo sapiens, UniProt O60885+P40337, L387A); assay: Competition assay (inhibitor pre-treatment, then AGB1); assay type: cell-based; settings: then 200 nM 46 for 3 h
T1 construct: comprising residues 368-440 of human Brd4; Brd2 (endogenous protein, fusion partner in the same polypeptide); eGFP-P2A (upstream marker in the knock-in cassette) (N, cleaved yes); expressed in transfected cells; host or cells: HEK293, heterozygous CRISPR knock-in at the endogenous BRD2 locus
T1 sequence (P40337 whole entry, other chains not shown, the tested form may be a part): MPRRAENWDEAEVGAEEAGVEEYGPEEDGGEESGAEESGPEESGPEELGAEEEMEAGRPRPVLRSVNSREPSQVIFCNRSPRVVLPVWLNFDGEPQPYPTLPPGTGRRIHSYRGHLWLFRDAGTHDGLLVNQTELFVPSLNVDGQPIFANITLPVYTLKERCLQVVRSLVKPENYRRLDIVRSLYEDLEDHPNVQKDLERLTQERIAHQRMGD
Method: Competition Assay. Heterozygous BromoTag-Brd2 HEK293 cells were plated in six-well plates at a density of 5×10^5 cells per well in 2 mL DMEM media. […] After 1 h, 200 nM of AGB1 was added to the previously compound treated cells. After a following 3 h the cells were harvested for subsequent processing via western blot. Each treatment was performed in tandem to produce two technical repeats per condition. The 6 well plates were incubated for 4 h at 37° C. and 5% CO2 throughout the experiment.
Western Blotting. All cells were harvested on ice with RIPA lysis, and extraction buffer (ThermoFisher Scientific, 89901) supplemented with protease inhibitor cocktail (Merck, 11697498001) and Benzonase® Nuclease (Sigma, E1014) before being store at −20° C. prior to use. Total protein quantity was determined using the BCA protein assay (#23225, Pierce, Rockford, Illinois). Protein concentration was determined using the BCA assay (ThermoFisher Scientific, 23225). Samples were then prepared and loaded onto NuPAGE™ 4-12% Bis-Tris Midi gels (ThermoFisher Scientific, WG1403A), followed by the transfer of the proteins onto nitrocellulose membranes (EMD Millipore). The membranes were blocked for 1 h prior to incubation with the primary antibodies using 5% Milk TBST. Membranes were probed for Brd2 (Abcam, Ab139690, 1:1000), Brd3 (Abcam, Ab50818, 1:4000), Brd4 (Abcam, Ab128874, 1:1000) or our polyclonal Brd4^BD2 L387A antibody. Following overnight incubation with the primary antibodies at 4° C., the membranes were incubated with secondary antibodies (Anti-rabbit, Abcam AB216773, 1:5000 or anti-mouse, Abcam AB216774, 1:5000) and hFAB™ Rhodamine Anti-Tubulin Antibody (Biorad, 12004165, 1:10000) for one h and then imaged with a Bio-Rad imager (LI-COR Biosciences). All western blots were analysed for band intensities using Image Lab from Bio-Rad (LI-COR, Biosciences). The data extracted from these blots were then plotted and analysed using Prism (v. 8.2.0, GraphPad).

CC[C@@H](C(=O)OCCOCCOCCOCC(=O)N[C@H](C(=O)N1C[C@H](O)C[C@H]1C(=O)NCc1ccc(-c2scnc2C)cc1)C(C)(C)C)[C@@H]1N=C(c2ccc(Cl)cc2)c2c(sc(C)c2C)-n2c(C)nnc21 (single isomer, unassigned) [AGB1 (46)]
depletion of BRD3, BRD4 or any other endogenous protein (proteomics) [1]: no detectable off-target effects
on-target degradation activity after pre-treatment with MLN4924 ([2]; 3 μM MLN4924 1 h): completely abrogated
on-target degradation activity after pre-treatment with ET-JQ1-OMe ([2]; 10 μM ET-JQ1-OMe 1 h): A similar outcome
on-target degradation activity after pre-treatment with VH298 ([2]; 10 μM VH298 1 h): completely abrogated
on-target degradation activity after pre-treatment with MG132 ([2]; 50 μM MG132 1 h): blocked
